# In patent US20230035127A1, “CULTURE AND DIFFERENTIATION OF PLURIPOTENT STEM CELLS” (University of Maryland, College Park, priority 2021, published 2023):
# Key:
# [1] = system: human eiPSCs (DF19-9-11T.H); assay: 3D suspension culture of eiPSC spheroids with Rock inhibitor (morphology, size, cells per spheroid); format: cell-based; details: day −3
# Protocol: The timeline for the 4-day (from day −4 to 0) 3D culture and the subsequent 3D cardiac differentiation of iPSCs is illustrated in FIG. 1B. First, 3D eiPSC spheroids were obtained for 3D cardiac differentiation, for which the eiPSC colonies from 2D culture were detached and mechanically cut with a cell strainer (100 μm mesh size) into small iPSC clumps for suspension culture in the mTeSR medium for 4 days. Methylcellulose was added into the medium to enhance the medium viscosity and reduce fusion of the eiPSC clumps/spheroids during the suspension culture. During the first two days of 3D culture, the medium was supplemented with 1 μM RI (low RI) or 10 μM RI (high RI that has been commonly used for improving the survival/yield of human PSCs including iPSCs during culture), and no RI was used during the last two days of culture. […]
# To obtain 3D iPSC spheroids, the iPSC colonies under 2D culture at ˜80% confluence were treated with Versene for 2 min, rinsed with PBS, and further detached from the substrate by gentle pipetting. […] The dissociated cells were then resuspended in 1.4 ml of the aforementioned iPSC maintenance medium and the cell number was counted using a hemocytometer. […]
# IMR90-1 human iPSCs = assay: Flow cytometry of IMR90-1 cardiac spheroids; format: cell-based; details: day 12.5
# Protocol: For flow cytometry, the eiPSC spheroids were collected on day 0 and the cardiac spheroids were collected on days 1.5, 2.5, 12.5, 15. The spheroids were dissociated to single cells by 0.25% trypsin for 5 min at 37° C. and then fixed with 75% ethanol at 4° C. overnight. The cells were permeabilized with 0.05% Triton X-100 for 3 min and then rinsed with 1×PBS twice. The cell numbers were adjusted to 1×10^6 cells/tube in 700 μL of saline for each marker. These cells were incubated with primary antibodies including OCT-4 (1:500 dilution, Cell Signaling Technologies), NANOG (1:500 dilution, Cell Signaling Technologies), SSEA-4 (1:500 dilution, Cell Signaling Technologies), BRACHYURY (1:500; Santa Cruz Biotechnology), NKX2.5 (1:500; Santa Cruz Biotechnology), cTnT (1:500 dilution, Cell Signaling Technologies), cTnI (1:500 dilution, Cell Signaling Technologies), α-ACTININ (1:500 dilution; Santa Cruz Biotechnology), MUSASHI-1 (1:500; R&D Systems), and TUJ-1 (1:500; R&D Systems) at 4° C. overnight. Subsequently, the samples were rinsed with 1×PBS thrice before incubation with corresponding secondary antibodies: goat anti-mouse IgG FITC and goat anti-rabbit IgG PE, respectively (1:1000; Invitrogen) for 1 h at RT. The samples were then rinsed with 1×PBS thrice before flow cytometry. The negative controls were the cells incubated with respective primary antibodies as aforementioned (no incubation with a secondary antibody).
smiles,measurement,setting,value
"C[C@@H](N)[C@H]1CC[C@H](C(=O)Nc2ccncc2)CC1.Cl.Cl (relative stereo) [RI, (+)-(R)-trans-4-(1-aminoethyl)-N-(4-pyridyl) cyclo-hexanecarboxamide dihydrochloride]",morphology of eiPSC spheroids,[1]; 1 μM RI,remain solid-like
same,morphology of eiPSC spheroids,[1]; 10 μM RI,evident core-shell morphology with a cavity-like core
same,cells positive for MUSASHI,IMR90-1 human iPSCs; 1 μM RI,negligible
same,cells positive for cTnT,IMR90-1 human iPSCs; 1 μM RI,91%
same,cells positive for MUSASHI,IMR90-1 human iPSCs; 10 μM RI,~20%
same,cells positive for cTnT,IMR90-1 human iPSCs; 10 μM RI,32%
